{"source": "patent US7939721B2", "about": "“Cropping systems for managing weeds” (Monsanto Technology LLC, priority 2006, dated 2011)", "origin": "cited, not measured here", "tested_on": "soybean plants transformed with dicamba monooxygenase (DMO)-encoding polynucleotide constructs", "conditions": "cited from earlier work", "note": "Where two headings read alike, the source gives them in different places."}
{"smiles": "COc1c(Cl)ccc(Cl)c1C(=O)O", "note": "[dicamba, 3,6-dichloro-o-anisic acid]", "values": [{"measurement": "injury", "setting": "18× application rate of 10,080 g/ha (9 lb/acre)", "value": "less than 20%"}, {"measurement": "injury", "setting": "approximately 2× rate of application of 1122 g/ha", "value": "less than 2%"}, {"measurement": "injury", "setting": "early pre-emergence application, 9× the labeled application rate (5,040 g/ha, 4.5 lb/acre)", "value": "less than 10%"}]}
